Assay type in all cases: cell-based
For experiment [1], the system named is VCaP cells. Kind of experiment: Luminescent caspase 3/7 assay in VCaP cells. The settings on record: 5 days, FIG. 3B. As for the experimental part:
(§1) Tumor cells were seeded in 96-well white tissue culture plates in 100 μL growth media (media with 10% FBS) or CSS media (media with 10% charcoal stripped fetal bovine serum). LNCaP cells were seeded at a density of 1,000 cells per well, whereas, VCaP cells were seeded at 7,500 cells per well. Approximately 24 hr after plating, duplicate or triplicate plates of cells were treated with indicated compounds for both luminescent caspase-3/7 and CTG readings. At the end of the 5 days of incubations, half of the plates were lysed and caspase-3/7 activity was measured using the Caspase-Glo® 3/7 Assay (Promega) according to the manufacturer's protocol. Briefly, Caspase-Glo reagent was added to each plate, incubated for at least 45 minutes, and luminescent signal was read on the EnVision Multilabel Plate Reader with a 0.1 sec integration time. The remaining plates were lysed and ATP levels were measured using the CTG assay. The caspase-3/7 signal was normalized to the ATP signal. The normalized values were expressed as a percentage of the control wells.

Experiment [2] deals with LNCaP cells. Description: Luminescent caspase 3/7 assay in LNCaP cells. The settings on record: five days, FIG. 3A. As to the method: as §1
Experiment [3] relates to LNCaP cells. Kind of experiment: Cell proliferation assay (CellTiter-Glo, total cellular ATP). The settings on record: charcoal-stripped serum, 0.1 nM R1881, 7 days; FIG. 1. As to the method:
Androgen-dependent prostate cancer cell line, LNCaP, were grown in RPMI 1640 culture medium supplemented with 10% charcoal-stripped fetal bovine serum for 24 hours in 96-well tissue culture plates at a density of 1,000 cells per well. Cells were treated with various concentrations of compounds A or B alone and in combination in presence of synthetic androgen (R1881, Sigma-Aldrich, St. Louis, Mo.). After 7 days, total cellular ATP was measured using the CellTiter-Glo Luminescent Cell Viability Assay (Promega, Madison, Wis.) on an EnVision plate reader. Background counts from wells containing no cells were subtracted and the data is presented as a percentage of the DMSO-treated control cells.

Experiment [4] relates to cell signaling in LNCaP cells. Kind of experiment: Effect on cell signaling (immunoblot assay). Particulars: 0.1 nM R1881, 6 hour, FIG. 2. As to the method: LNCaP cells were grown in RPMI 1640 culture medium supplemented with 10% charcoal-stripped fetal bovine serum for 48 hours in 6-well tissue culture plates at a density of 500,000 cells per well. Cells were treated with the indicated compounds for six hours, washed with PBS, and whole cell lysates were prepared in RIPA buffer (Teknova, Hollister, Calif.). Cell lysates were clarified by centrifugation at 20,000 relative centrifugal force, 4° C., and protein was quantified using the BCA Protein Assay Kit (Pierce, Rockford, Ill.). Equal amounts of protein lysates were separated by SDS-PAGE using a 4-12% Bis-Tris polyacrylamide gel (Life Technologies) and transferred to a nitrocellulose membrane and incubated with antibodies against total and phospho-AKT, phospho-PRAS40, total and phospho-S6, androgen receptor, and FKBP5. Following incubation with primary antibody, blots were washed and incubated with IRDye-800 anti-mouse or IRDye-680 anti-rabbit antibodies for 1 h. Following thorough washing, blots were analyzed using an infrared imaging system (LI-COR).
For orientation: Immunoblotting shows a protein as a band on a membrane.

As for `CNC(=O)c1ccc(N2C(=S)N(c3ccc(C#N)c(C(F)(F)F)c3)C(=O)C2(C)C)cc1F` [Compound A, 4-(3-(4-Cyano-3-(trifluoromethyl)phenyl)-5,5-dimethyl-4-oxo-2-thioxoimidazolidin-1-yl)-2-fluoro-N-methylbenzamide, reference compound], the “caspase 3/7 activity induction in VCaP cells, CSS media” value in experiment [1] (Compound A 10 uM, CSS media) came to 11 fold. Also, the “caspase 3/7 activity induction in VCaP cells, growth media” value in experiment [1] (Compound A 10 uM, growth media) is 2 fold. The “caspase 3/7 activity induction in LNCaP cells” value in experiment [2] (Compound A 10 uM, Compound B 1 uM, or both, medium not specified) is reported as “no induction”. The “caspase 3/7 activity induction in LNCaP cells, media containing charcoal stripped serum” value in experiment [2] (CSS media) was “strong induction”. Moreover, the “caspase 3/7 activity induction in LNCaP cells, growth media” value in experiment [2] (growth media (10% FBS)) is given as “strong induction”. The “LNCaP cell growth (anti-proliferative effect)” value in experiment [3] is “inhibited”.

With `Cn1ncc(Cl)c1-c1cc(C(=O)N[C@H](CN)Cc2cccc(F)c2)sc1Cl` [Compound B, N-{(1S)-2-amino-1-[(3-fluorophenyl)methyl]ethyl}-5-chloro-4-(4-chloro-1-methyl-1H-pyrazol-5-yl)-2-thiophenecarboxamide], the “caspase 3/7 activity induction in VCaP cells, media containing charcoal stripped serum (in words)” value in experiment [1] (Compound B 1 uM, CSS media) was “not”. Also, the “caspase 3/7 activity induction in VCaP cells, growth media (in words)” value in experiment [1] (Compound B 1 uM, growth media) was “strong induction”. Besides, the “phospho-AKT (T308)” value in experiment [4] (Compound B 100 or 300 nM alone or with compound A 3 uM) is reported as “increased”. For the same compound, in experiment [4] (Compound B 100 or 300 nM), the androgen receptor level entry is “no significant effect”, the “androgen receptor target gene (FKBP5) expression” value is on record as “no significant effect”, the “phospho-PRAS40 (AKT downstream substrate)” value is “inhibited” and the “phospho-S6 (AKT downstream substrate)” value is on record as “inhibited”. Moreover, the “LNCaP cell growth (anti-proliferative effect)” value in experiment [3] is recorded as “inhibited”.

Source of the values: patent US20180117011A1, “ENZALUTAMIDE IN COMBINATION WITH AFURESERTIB FOR THE TREATMENT OF CANCER” (Novartis AG, priority 2013, published 2018).
